# Data taken from patent US11541093B2, “Pharmacological use of Cimicifuga extract” (Max Zeller Soehne AG, priority 2012, dated 2023).
# What was measured:
# diabetic rats = details: intravenously at 5 and 10 mg/kg; cited from earlier work
# male ob/ob mice [1] = assay: Body weight in male ob/ob mice; assay type: in vivo
# Text: (§1) The effects of oral 7-day administration of a Cimicifuga racemosa extract prepared according to example 1 and designated Ze 450 on body weight, daily food and water intake as well as glucose control were investigated in male ob/ob mice as follows. The ob/ob mouse is a well-characterized and representative in-vivo model of obesity and diabetes in mammals, in particular humans, wherein both disorders are the result of a mutation in the ob gene which encodes leptin. In the study metformin was the positive control.
# (§2) Body weight, food and water intake were measured daily from 6 days before dosing to 6 days after dosing started. Animals were fasted overnight on Day 6 for an oral glucose tolerance test (OGTT) on Day 7. The animals also had freely fed bleeds on Day −4 and Day 6. […]
# (§3) All treatments were dosed orally by gavage […] once daily. During the treatment period food intake, water intake and body weight were recorded daily at the dosing session. After dosing the animals were examined and any overt behavior was recorded. […]
# (§4) Body weights, food intake and water intake were expressed as mean values ±SEM. Body weight, body weight gain, daily and average food and water intake data and cumulative food intake were analyzed by ANCOVA with baseline as a covariate, followed by appropriate comparisons (two-tailed) to determine significant differences from the appropriate control group. […]
# male ob/ob mice [2] = assay: Daily water intake in male ob/ob mice; assay type: in vivo; details: metformin PO; p=0.002
# Text: as §1, §2, §3, §4
SMILES,plasma glucose levels (diabetic rats),"effect on overall body weight (male ob/ob mice [1]; metformin 200 mg/kg PO, after 6 days of treatment)","cumulative body weight over the 6 treatment days (male ob/ob mice [1]; metformin PO, compared to its control group)",average weekly water intake (male ob/ob mice [2])
COc1ccc(/C=C/C(=O)O)cc1O [isoferulic acid],will lower plasma glucose levels,,,
CN(C)C(=N)N=C(N)N [metformin],,no significant effect,virtually no reduction,significant (p=0.002) reduction
